Results reported in ChEMBL document CHEMBL5653631, “A Potent and Selective ULK1 Inhibitor Suppresses Autophagy and Sensitizes Cancer Cells to Nutrient Stress” (iScience, 2018).

Legend:
[1] = molecular target: T1, Inhibitor of nuclear factor kappa-B kinase subunit alpha (Homo sapiens) (UniProt O15111); experiment: Inhibition of human recombinant IKKa at 500 nM related to control ULK1
T1 sequence (whole entry): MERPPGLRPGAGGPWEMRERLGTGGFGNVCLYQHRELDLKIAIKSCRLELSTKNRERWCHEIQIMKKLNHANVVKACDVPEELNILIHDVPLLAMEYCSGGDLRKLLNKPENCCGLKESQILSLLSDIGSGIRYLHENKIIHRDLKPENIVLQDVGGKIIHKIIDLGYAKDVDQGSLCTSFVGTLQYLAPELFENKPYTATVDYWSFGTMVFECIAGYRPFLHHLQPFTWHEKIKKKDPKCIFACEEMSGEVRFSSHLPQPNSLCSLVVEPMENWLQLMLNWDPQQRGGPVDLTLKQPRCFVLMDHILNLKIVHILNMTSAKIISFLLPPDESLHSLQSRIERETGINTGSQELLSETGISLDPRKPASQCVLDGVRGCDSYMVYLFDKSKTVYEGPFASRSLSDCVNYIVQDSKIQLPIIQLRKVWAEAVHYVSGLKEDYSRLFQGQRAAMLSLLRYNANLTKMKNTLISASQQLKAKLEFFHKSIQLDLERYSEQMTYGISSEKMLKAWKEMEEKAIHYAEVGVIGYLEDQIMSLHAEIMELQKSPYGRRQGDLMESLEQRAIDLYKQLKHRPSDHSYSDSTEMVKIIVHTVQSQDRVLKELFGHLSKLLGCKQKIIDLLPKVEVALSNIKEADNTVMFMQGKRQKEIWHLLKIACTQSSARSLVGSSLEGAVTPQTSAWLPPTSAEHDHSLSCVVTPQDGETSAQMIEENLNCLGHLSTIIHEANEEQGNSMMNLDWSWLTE

[2] = molecular target: T2, Ephrin type-A receptor 1 (Homo sapiens) (UniProt P21709); experiment: Inhibition of human recombinant EphA1 at 500 nM in presence of ATP by radiometric assay relative to control
T2 sequence (whole entry): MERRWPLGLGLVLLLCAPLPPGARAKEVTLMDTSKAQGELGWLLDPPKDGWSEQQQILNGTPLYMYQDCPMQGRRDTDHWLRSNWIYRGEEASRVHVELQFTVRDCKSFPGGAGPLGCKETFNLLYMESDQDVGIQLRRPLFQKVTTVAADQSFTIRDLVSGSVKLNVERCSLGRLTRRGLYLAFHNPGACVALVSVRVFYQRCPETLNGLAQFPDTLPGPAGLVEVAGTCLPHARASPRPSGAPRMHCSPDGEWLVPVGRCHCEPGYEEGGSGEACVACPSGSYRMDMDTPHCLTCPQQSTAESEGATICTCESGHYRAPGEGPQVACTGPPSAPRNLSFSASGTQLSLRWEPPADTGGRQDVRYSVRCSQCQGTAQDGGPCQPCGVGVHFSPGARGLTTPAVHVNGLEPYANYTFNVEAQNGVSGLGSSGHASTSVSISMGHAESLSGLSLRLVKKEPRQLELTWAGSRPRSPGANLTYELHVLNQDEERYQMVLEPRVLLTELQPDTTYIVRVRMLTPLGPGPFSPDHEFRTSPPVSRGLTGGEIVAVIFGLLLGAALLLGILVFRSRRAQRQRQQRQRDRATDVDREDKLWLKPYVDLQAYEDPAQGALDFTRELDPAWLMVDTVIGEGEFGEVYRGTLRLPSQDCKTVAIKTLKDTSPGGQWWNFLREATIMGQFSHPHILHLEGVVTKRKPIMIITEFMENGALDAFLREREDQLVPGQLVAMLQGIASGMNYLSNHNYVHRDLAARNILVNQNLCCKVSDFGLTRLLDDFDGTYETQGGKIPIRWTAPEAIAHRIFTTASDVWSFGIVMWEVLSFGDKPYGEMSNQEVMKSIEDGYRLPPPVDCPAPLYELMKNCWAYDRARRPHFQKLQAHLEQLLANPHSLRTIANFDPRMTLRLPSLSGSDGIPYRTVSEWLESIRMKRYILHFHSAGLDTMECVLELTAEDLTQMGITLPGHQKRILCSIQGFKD

[3] = molecular target: MAP/microtubule affinity-regulating kinase 3 (Homo sapiens) (UniProt P27448); experiment: Inhibition of human recombinant MARK3 at 500 nM related to control ULK1
Sequence of MAP/microtubule affinity-regulating kinase 3 (Homo sapiens) (P27448 whole entry, looked up): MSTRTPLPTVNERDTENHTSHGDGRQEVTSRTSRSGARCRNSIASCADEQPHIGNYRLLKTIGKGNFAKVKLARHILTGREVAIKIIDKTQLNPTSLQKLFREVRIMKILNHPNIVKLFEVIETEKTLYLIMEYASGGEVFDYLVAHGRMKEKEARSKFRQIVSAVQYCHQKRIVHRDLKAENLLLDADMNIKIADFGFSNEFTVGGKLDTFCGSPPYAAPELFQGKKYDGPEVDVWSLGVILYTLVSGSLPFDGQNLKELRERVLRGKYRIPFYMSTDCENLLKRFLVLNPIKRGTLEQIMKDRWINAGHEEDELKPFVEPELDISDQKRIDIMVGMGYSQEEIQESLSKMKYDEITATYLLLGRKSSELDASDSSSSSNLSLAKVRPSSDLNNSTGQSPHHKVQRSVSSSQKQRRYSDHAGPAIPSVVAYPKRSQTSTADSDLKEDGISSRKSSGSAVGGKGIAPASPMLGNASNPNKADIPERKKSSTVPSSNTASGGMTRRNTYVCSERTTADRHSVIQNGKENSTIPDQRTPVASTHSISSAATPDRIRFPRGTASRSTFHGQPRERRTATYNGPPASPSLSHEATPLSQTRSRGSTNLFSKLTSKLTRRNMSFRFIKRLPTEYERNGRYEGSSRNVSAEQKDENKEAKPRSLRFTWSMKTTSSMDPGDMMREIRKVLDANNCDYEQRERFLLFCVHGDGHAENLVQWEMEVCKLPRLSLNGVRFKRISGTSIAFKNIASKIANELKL

[4] = molecular target: Fibroblast growth factor receptor 4 (Homo sapiens) (UniProt P22455); experiment: Inhibition of human recombinant FGFR4 at 500 nM in presence of ATP by radiometric assay relative to control
Sequence of Fibroblast growth factor receptor 4 (Homo sapiens) (P22455 22-802 limits assumed): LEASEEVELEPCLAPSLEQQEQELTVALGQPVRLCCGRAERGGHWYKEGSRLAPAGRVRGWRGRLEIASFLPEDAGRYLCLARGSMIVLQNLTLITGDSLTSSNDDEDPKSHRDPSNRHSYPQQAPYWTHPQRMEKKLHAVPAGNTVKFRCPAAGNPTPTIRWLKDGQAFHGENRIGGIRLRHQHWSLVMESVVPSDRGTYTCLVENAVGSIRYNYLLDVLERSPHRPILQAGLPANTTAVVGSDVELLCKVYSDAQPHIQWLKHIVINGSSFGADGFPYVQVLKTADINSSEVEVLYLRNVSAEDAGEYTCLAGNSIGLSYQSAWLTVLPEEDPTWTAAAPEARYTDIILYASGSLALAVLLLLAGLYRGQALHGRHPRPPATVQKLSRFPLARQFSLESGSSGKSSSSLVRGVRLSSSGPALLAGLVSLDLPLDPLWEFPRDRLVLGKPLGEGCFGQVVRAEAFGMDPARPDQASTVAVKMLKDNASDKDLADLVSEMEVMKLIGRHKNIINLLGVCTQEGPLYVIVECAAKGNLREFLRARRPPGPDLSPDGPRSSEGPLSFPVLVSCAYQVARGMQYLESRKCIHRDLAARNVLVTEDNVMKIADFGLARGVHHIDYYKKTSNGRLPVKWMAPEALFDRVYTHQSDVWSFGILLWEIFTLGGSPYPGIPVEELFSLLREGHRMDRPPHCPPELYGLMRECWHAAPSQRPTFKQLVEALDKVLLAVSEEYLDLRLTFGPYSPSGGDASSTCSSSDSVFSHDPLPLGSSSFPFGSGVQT

[5] = molecular target: Interleukin-1 receptor-associated kinase 1 (Homo sapiens) (UniProt P51617); experiment: Inhibition of human recombinant IRAK1 at 500 nM in presence of ATP by radiometric assay relative to control
Sequence of Interleukin-1 receptor-associated kinase 1 (Homo sapiens) (P51617 whole entry, looked up): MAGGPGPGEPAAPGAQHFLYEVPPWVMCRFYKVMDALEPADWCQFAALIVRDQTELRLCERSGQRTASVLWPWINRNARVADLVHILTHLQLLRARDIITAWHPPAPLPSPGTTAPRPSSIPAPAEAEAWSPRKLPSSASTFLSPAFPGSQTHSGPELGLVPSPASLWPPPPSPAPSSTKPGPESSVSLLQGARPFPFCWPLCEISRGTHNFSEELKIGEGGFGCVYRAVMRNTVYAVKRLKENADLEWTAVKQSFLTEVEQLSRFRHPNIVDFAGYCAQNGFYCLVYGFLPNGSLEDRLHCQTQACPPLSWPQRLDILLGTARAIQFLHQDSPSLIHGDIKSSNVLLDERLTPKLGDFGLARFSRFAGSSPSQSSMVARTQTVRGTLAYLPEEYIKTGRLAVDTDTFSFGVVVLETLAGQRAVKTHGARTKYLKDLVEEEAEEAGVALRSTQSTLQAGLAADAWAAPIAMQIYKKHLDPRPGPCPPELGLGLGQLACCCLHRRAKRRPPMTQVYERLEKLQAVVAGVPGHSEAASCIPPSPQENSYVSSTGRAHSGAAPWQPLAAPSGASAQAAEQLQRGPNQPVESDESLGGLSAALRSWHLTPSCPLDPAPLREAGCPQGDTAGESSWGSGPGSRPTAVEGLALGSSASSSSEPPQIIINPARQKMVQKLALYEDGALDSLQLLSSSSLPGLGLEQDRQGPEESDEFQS

[6] = molecular target: Homeodomain-interacting protein kinase 1 (Homo sapiens) (UniProt Q86Z02); experiment: Inhibition of human recombinant HIPK1 at 15 nM in presence of ATP by radiometric assay relative to control
Sequence of Homeodomain-interacting protein kinase 1 (Homo sapiens) (Q86Z02 whole entry, looked up): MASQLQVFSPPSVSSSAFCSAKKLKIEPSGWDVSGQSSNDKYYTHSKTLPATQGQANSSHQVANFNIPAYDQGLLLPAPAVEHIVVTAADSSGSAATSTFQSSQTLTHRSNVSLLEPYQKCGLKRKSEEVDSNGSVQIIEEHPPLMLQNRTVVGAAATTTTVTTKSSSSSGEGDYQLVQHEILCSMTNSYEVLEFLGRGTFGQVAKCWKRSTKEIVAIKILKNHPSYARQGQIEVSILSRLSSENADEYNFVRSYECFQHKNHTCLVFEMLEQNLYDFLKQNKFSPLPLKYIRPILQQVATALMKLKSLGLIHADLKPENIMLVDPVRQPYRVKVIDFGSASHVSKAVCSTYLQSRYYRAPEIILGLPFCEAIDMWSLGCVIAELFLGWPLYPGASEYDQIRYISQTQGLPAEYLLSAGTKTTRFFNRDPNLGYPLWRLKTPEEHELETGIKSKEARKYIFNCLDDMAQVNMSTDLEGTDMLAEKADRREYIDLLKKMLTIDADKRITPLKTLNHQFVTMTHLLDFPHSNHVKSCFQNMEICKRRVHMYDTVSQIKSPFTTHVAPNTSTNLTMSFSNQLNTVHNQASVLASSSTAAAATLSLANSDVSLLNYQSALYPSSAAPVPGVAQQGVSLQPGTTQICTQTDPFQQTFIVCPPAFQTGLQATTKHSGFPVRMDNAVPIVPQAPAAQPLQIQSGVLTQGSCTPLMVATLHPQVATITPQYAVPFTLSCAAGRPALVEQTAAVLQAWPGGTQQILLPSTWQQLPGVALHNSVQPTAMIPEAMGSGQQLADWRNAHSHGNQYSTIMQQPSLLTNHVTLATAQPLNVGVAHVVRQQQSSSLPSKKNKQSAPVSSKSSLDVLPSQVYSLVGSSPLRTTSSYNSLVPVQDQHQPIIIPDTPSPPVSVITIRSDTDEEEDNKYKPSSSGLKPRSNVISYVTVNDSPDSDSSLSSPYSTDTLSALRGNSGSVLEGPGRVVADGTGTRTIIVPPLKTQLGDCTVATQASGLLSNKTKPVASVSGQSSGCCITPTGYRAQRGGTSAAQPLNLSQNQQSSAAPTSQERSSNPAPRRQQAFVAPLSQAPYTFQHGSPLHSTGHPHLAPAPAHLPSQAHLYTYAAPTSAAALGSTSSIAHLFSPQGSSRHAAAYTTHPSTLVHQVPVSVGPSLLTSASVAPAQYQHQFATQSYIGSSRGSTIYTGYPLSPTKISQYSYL

fold change (FC) [1] | inhibition [2] [%] | fold change (FC) [3] | inhibition [4] [%] | inhibition [5] [%] | inhibition [6] [%] | Structure (SMILES)
0.03 | 13 | 0.61 | 10 | 15 |  | CNC(=O)c1ccccc1Oc1nc(Nc2cc(OC)c(OC)c(OC)c2)ncc1Br
 |  |  |  |  | 0 | CC(C)[C@H](NC(=O)c1cc(-c2cnn3cc(-c4ccc(OCCN5CCCCC5)cc4)cnc23)cs1)C(F)(F)F
